From US20110195987A1, “TREATMENT WITH CHOLINERGIC AGONISTS” (priority 2009, published 2011)

Key:
Type in all cases: in vivo, human
[1] = Case studies: vaginal dryness / vaginal secretions in female patients
Description: (§1) A second patient two, suffering from painful intercourse and vaginal dryness and discomfort, also used oral pilocarpine at a dose of 2.5-5 mg BID. […] A trial of intra-vaginal administration of pilocarpine, starting at a dose of 1/4 of a 5 mg tablet daily at night was tried. […] The patient had previously tried HRT without much improvement. The improvement in vaginal symptoms was stunning.
(§2) A third patient has had problems with vaginal dryness and painful intercourse for several years. Oral hormone replacement therapy consisting of both estradiol and PROMETRIUM (progesterone), had provided no relief for their vaginal symptoms. They were started on oral Evoxac, 30 mg daily. After a week, they administered 30 mg cevimeline mixed with a small amount of yogurt directly in the vagina nightly. They have reported improvement in both vaginal dryness and pain on intercourse and continues on the treatment.
They were started on oral pilocarpine, 5 mg twice a day. Within a few days, they noticed marked improvement in their symptoms, i.e., a reduction in vaginal dryness and symptoms associated with urinary tract infections. […]
(§3) Their symptoms consisted of vaginal and pelvic pain as well as signs of urinary tract infections with trace positive cultures. Prior attempts to treat urinary tract infections with antibiotics often failed. They began a regimen of oral pilocarpine, 5 mg twice a day, for a week followed by 5 mg pilocarpine administered directly to the vagina nightly for a week. Subsequently, the amount of pilocarpine was increased to 10 mg directly administered to the vagina nightly. […] Additionally, they reported a reduction in pelvic pain and vaginal dryness a few days after commencing intravaginal administration of 10 mg pilocarpine.

[2] = Case studies: urinary tract infections in female patients
Description: […] […] They were started on oral pilocarpine, 5 mg twice a day. Within a few days, they noticed marked improvement in their symptoms, i.e., a reduction in vaginal dryness and symptoms associated with urinary tract infections.
(§4) […] They began and tolerated oral pilocarpine, 5 mg twice a day.
(§5) They began a week long regimen of oral pilocarpine, 5 mg twice a day, followed by 10 mg placed directly in the vagina nightly. They reported improvement in symptoms associated with urinary tract infections, vaginal dryness and painful intercourse. […] Formulation of the pilocarpine in a manner suitable for intravaginal administration will improve delivery of the pilocarpine and the efficacy of treatment.

[3] = Case studies: symptoms of interstitial cystitis (IC) in female patients
Description: (§6) In the case of a patient who has been diagnosed with IC for more than 8 years, no prior treatment has helped the episodes of pain, urinary frequency, and systemic symptoms mentioned above. […] However, the onset of breast cancer and its treatment have precluded the use of Hormone Replacement Therapy (HRT). Because of vaginal dryness, a trial of Evoxac (cevimeline HCl) capsules, 30 mg daily, by oral administration was tried. […] This lasted for about 2 months. The Evoxac was started on or about Apr. 5, 2009. […] Metoprolol at a dose of 12.5-25 mg/day was started to slow the heart rate. […] The Evoxac was restarted at a dose of 15 mg daily. A trial of intra-vaginal medication at a dose of 30 mg per vagina (powder was taken out of the capsule and instilled using a gel cap) was also tried.
as §3

[4] = Case studies: side effects of oral versus intra-vaginal administration
Description: as §6, §1, §4

[5] = Case study: vaginal yeast infections in patient; conditions: Case Study 5, patient one; oral 5 mg twice a day, approximately 8 months
Description: as §4

[6] = Case studies: painful intercourse in female patients
Description: as §1, §2, §5

[7] = Case Study 4, patient five, oral 5 mg twice a day, within a few days
[8] = Case Study 5, patient one, oral 5 mg twice a day, approximately 8 months
[9] = Case Study 6, patient six, oral 5 mg twice a day for a week, then 10 mg in the vagina nightly
[10] = Case Study 7, patient four, 10 mg intravaginal nightly, a few days after commencing
[11] = Case Study 2, patient two, oral 2.5-5 mg BID
[12] = Case Study 2, patient two, intra-vaginal up to 7.5 mg daily
[13] = Case Study 1, patient three, 30 mg daily, oral
[14] = Case Study 3, patient seven, oral 30 mg daily for a week, then 30 mg in yogurt directly in the vagina nightly

## CC(=O)[C@H]1CC[C@H]2[C@@H]3CCC4=CC(=O)CC[C@]4(C)[C@H]3CC[C@]12C [PROMETRIUM, progesterone]
[1]; Case Study 3, patient seven, oral hormone replacement therapy, estradiol and PROMETRIUM together
  vaginal symptoms (vaginal dryness and painful intercourse): no relief

## CC[C@@H]1C(=O)OC[C@@H]1Cc1cncn1C [pilocarpine, (3S,4R)-3-ethyl-4-((1-methyl-1H-imidazol-5-yl)methyl)dihydrofuran-2(3H)-one]
[2]; [7]
  symptoms associated with urinary tract infections: reduction
[2]; [8]
  urinary tract infections: far fewer
[2]; [9]
  symptoms associated with urinary tract infections: improvement
[3]; [10]
  pelvic pain: reduction
[4]; Case Study 2, patient two, intra-vaginal
  systemic symptoms: no systemic symptoms
[4]; [11]
  side effects: excess sweating and nausea
[4]; Case Study 5, patient one, oral 5 mg twice a day
  tolerability: tolerated
[1]; Case Study 2, patient two, intra-vaginal 2.5 mg daily
  vaginal secretions: partial response
[1]; Case Study 2, patient two, intra-vaginal 5 mg daily
  vaginal secretions: improved greatly
[1]; Case Study 2, patient two, intra-vaginal 7.5 mg daily
  vaginal secretions: improved greatly
[1]; [12]
  improvement in vaginal symptoms: stunning
[1]; [11]
  vaginal dryness: improved
[1]; [7]
  vaginal dryness: reduction
[1]; Case Study 4, patient five, oral, taken intermittently
  results of intermittent dosing: satisfactory results
[1]; [8]
  vaginal dryness: no more vaginal dryness
[1]; [9]
  vaginal dryness: improvement
[1]; Case Study 7, patient four, 5 mg directly to the vagina nightly, after the first week
  vaginal secretions: an increase in vaginal secretions
[1]; Case Study 7, patient four, 10 mg directly to the vagina nightly
  vaginal secretions: increased more significantly
[1]; [10]
  vaginal dryness: reduction
[5]
  vaginal yeast infections: far fewer
[6]; [12]
  intercourse: could enjoy intercourse for the first time in many months
[6]; [9]
  painful intercourse: improvement

## CC1OC2(CS1)CN1CCC2CC1 (stereo not drawn) [Evoxac, 2-methyspiro (1,3-oxathiolane-5,3) quinuclidine]
[3]; Case Study 1, patient three, 15 mg daily oral, compared with prior treatment incl. Elmiron 100 mg TID four months
  symptoms of IC: improved the symptoms of IC better than any prior treatment
[3]; [13]
  duration of remission of IC symptoms: about 2 months
  symptoms of IC: remitted
[3]; Case Study 1, patient three, 30 mg intra-vaginal (powder in gel cap), compared with prior treatment incl. Elmiron 100 mg TID four months
  symptoms of IC: improved the symptoms of IC better than any prior treatment
[3]; Case Study 1, patient three, stopped for a few weeks
  symptoms of IC after discontinuing the medication: symptoms of IC return within a week
[4]; Case Study 1, patient three, 30 mg intra-vaginal
  side effects: completely eliminated side-effects
[4]; Case Study 1, patient three, oral administration, 30 mg daily
  side effects: nausea and rapid heart rate
[1]; Case Study 1, patient three, capsules 30 mg daily, oral
  vaginal dryness: improvement in vaginal dryness
[1]; [14]
  vaginal dryness: improvement
[6]; [14]
  pain on intercourse: improvement
